Values joined by “and” are separate entries in the source; they are usually repeats but may differ in a detail not shown here. Identical values can stand only once. Like-named read-outs stand apart in the source and are kept apart here. Peptide text beside a SMILES is read from it. * marks the point of attachment. X1 = CCCCCCCCCCCCCCCCn1cc[n+](Cc2cn(CC(=O)*)nn2)c1
Columns and labels:
[1] = tested on: S. aureus (ATCC 29213); settings: for MBC: ATCC 29213, 24 h; for MIC: 10^5 CFU/mL, 18 h at 37°C, three independent experiments in triplicates
Description: The antibacterial activity of C16Im-KTTKS and KTTK(C16Im)S was also assessed in simulated wound fluid (SWF) ([35]) against S. aureus (ATCC 29213), to check if it was preserved in this medium.
(ii) Antibacterial activity in simulated wound fluid. […] In parallel, SWF was prepared to a final composition of 50% fetal bovine serum (FBS; Sigma-Aldrich) and 50% peptone water (0.9% NaCl in 0.1% aqueous peptone; Sigma-Aldrich) ([35]). […] MIC values were determined in triplicates and are a result of three independent experiments.

[2] = tested on: HaCaT cells (human immortalized keratinocytes); experiment: cells; type: cell-based; settings: 24 h
Description: (§1) The cytotoxicity of KTTK(C16Im)S and C16Im-KTTKS conjugates was assessed on human foreskin fibroblasts (HFF-1) and human immortalized keratinocytes (HaCaT). […] In turn, the parent IL [C16 M1Im][Br] and its […] equimolar mixture with PP4, KTTKS:[C16 M1Im][Br]
(§2) (iv) Toxicity to human cells. HaCat and HFF-1 were seeded at 4 × 10^4cell/mL in 96-well plate using in Dulbecco’s Modified Eagle Medium (DMEM; CLS) supplemented with 2% FBS (Biowest) and 1% of antibiotic/antimycotic solution (100 units/mL of penicillin, 10 mg/mL of streptomycin, and 0.25 mg/mL of amphotericin B, Sigma-Aldrich). The plate was incubated at 37°C in a 5% CO2 atmosphere, and the cells allowed to grow until confluence was reached. Then, solutions of the test compounds in DMEM supplemented with 2% FBS, in a concentration range between 6.3 and 100 μM, were added to the wells. After 24 h of incubation at 37°C in a 5% CO2 atmosphere, the cell viability was assessed through the resazurin reduction assay. Briefly, the medium was removed and then 20 μL of the alamarBlue Cell Viability Reagent (Resazurin sodium salt, Sigma-Aldrich) at 0.15 mg/mL in 100 μL of Hank’s Balanced Salt Solution (HBSS; Sigma-Aldrich) were added to each well; the plate was next incubated for 2 h at 37°C in a 5% CO2 atmosphere, after which fluorescence was read at 560/590 nm on a Flex Station 3 multi-mode microplate reader (Molecular Devices) ([53]). The IC50 values were thus determined using the GraphPad Prism 9.0 software, by applying the equation log(inhibitor) versus response with variable slope (four parameters).

[3] = tested on: S. epidermidis ATCC 14990; settings: broth microdilution in cation-adjusted MHB2, CLSI, n = 3
Description: (§3) The antimicrobial activity of the IL-KTTKS conjugates was assessed in vitro against reference bacterial strains (American Type Culture Collection, ATCC). The minimal inhibitory concentration (MIC) was determined according to the Clinical and Laboratory Standards Institute (CLSI) guidelines ([28]) against Gram-positive (S. aureus, Enterococcus faecalis) and Gram-negative (Escherichia coli, Pseudomonas aeruginosa) bacteria.
(§4) (i) Antibacterial activity in standard conditions. The test conjugates and reference compounds were evaluated for their activity against three reference strains of Gram-negative bacteria, namely, E. coli (ATCC 25922), Pseudomonas aeruginosa (ATCC 27853), and Klebsiella pneumoniae (ATCC 13883), and the four following reference strains of Gram-positive bacteria, Staphylococcus aureus (ATCC 29213), S. Epidermidis (ATCC 14990), E. faecalis (ATCC 29212), and Streptococcus pyogenes (ATCC 19615). […] MBC values were also determined as previously reported ([52]).

[4] = tested on: S. aureus (SA007) MDR clinical isolate; settings: for MIC: n = 3
[5] = tested on: C. glabrata ATCC 90030; experiment: microbe, parasite or virus in culture; settings: C. glabrata ATCC 90030, RPMI 1640 with 2% glucose, EUCAST, n = 2
Description: (§5) The MIC values were determined according to the European Committee on Antimicrobial Susceptibility Testing (EUCAST) protocol ([36]) and are shown on Table 4.
(§6) (iii) Antifungal activity.

[6] = tested on: C. parapsilosis ATCC 22019; experiment: microbe, parasite or virus in culture; settings: C. parapsilosis ATCC 22019, RPMI 1640 with 2% glucose, EUCAST, n = 2
Description: as §5, §6

[7] = tested on: C. albicans ATCC 90028; experiment: microbe, parasite or virus in culture; settings: C. albicans ATCC 90028, RPMI 1640 with 2% glucose, EUCAST, n = 2
Description: as §5, §6

[8] = tested on: E. coli ATCC 25922; experiment: microbe, parasite or virus in culture; settings: E. coli ATCC 25922; broth microdilution in cation-adjusted MHB2, CLSI; n = 3
Description: as §3, §4

[9] = tested on: P. aeruginosa ATCC 27853; experiment: microbe, parasite or virus in culture; settings: P. aeruginosa ATCC 27853; broth microdilution in cation-adjusted MHB2, CLSI; n = 3
Description: as §3, §4

[10] = tested on: S. aureus ATCC 29213; experiment: microbe, parasite or virus in culture; settings: S. aureus ATCC 29213; broth microdilution in cation-adjusted MHB2, CLSI; n = 3
Description: as §3, §4

[11] = tested on: E. faecalis ATCC 29212; experiment: microbe, parasite or virus in culture; settings: E. faecalis ATCC 29212; broth microdilution in cation-adjusted MHB2, CLSI; n = 3
Description: as §3, §4

[12] = tested on: K. pneumonia ATCC 138830; experiment: microbe, parasite or virus in culture; settings: K. pneumonia ATCC 138830; broth microdilution in cation-adjusted MHB2, CLSI; n = 3
Description: as §3, §4

[13] = tested on: P. aeruginosa (PA004) MDR clinical isolate; settings: n = 3
[14] = tested on: human dermal fibroblasts (HDF); experiment: Collagen production, Sircol kit assay; type: cell-based; settings: 5 μM, 48 h, three independent experiments in triplicates, values only in Fig. 3
Description: The point of conjugating antimicrobial ILs to a collagenesis-inducing peptide was to afford a simple construct able to exert a dual antimicrobial and skin rebuilding action. Therefore, the two best IL-KTTKS conjugates were further tested for their ability to promote collagen production by human dermal fibroblasts (HDF) in vitro. This was assessed using the Sircol kit assay, whereby the amount of newly formed collagen in the ECM that is deposited in the microwell-plated cell cultures is solubilized in an acidic medium and next quantified through a collagen standard curve according to the Sircol kit assay procedure ([38]). […]
(v) Collagen production in human dermal fibroblasts. The amount of collagen produced by HDF was determined using the SIRCOL Kit Assay (Biocolor) according to the manufacturers’ instructions ([38]). […] Medium was then removed, and quantitation of the newly formed collagen proceeded as follows: collagen was solubilized in cold 0.5 M aqueous acetic acid (Fisher Chemical) and concentrated overnight with deposition of a transparent pellet; after centrifugation, the supernatant was discarded and the pellet was labeled with the SIRCOL dye reagent; after removing the unbound dye with the acid-salt wash reagent, the collagen-bound dye was dissolved with the alkali reagent and absorbance was measured at 555 nm on Flex Station 3 multimode microplate reader. […]

[15] = tested on: HFF-1 cells (human foreskin fibroblasts); type: cell-based; settings: 24 h
Description: as §1, §2

[16] = tested on: K. pneumoniae (KP010) MDR clinical isolate; settings: n = 3
[17] = in SWF (50% FBS, 50% peptone water)

Compound | MBC [1] | MIC ([1]; in MHB) [µg/mL] | MIC [1, 17] [µg/mL] | IC50 [2] [µM] | MIC [3] | MIC [4] | MIC [8] | MIC [9] | MIC [10] | MIC [11] | MIC [12] | MIC [13] | Collagen synthesis by HDF compared to the negative control [14] | IC50 [15] [µM] | MIC [16] | further results
CCCCCCCCCCCCCCCCn1cc[n+](Cc2cn(CC(=O)N[C@@H](CCCCN)C(=O)N[C@H](C(=O)N[C@H](C(=O)N[C@@H](CCCCN)C(=O)N[C@@H](CO)C(N)=O)[C@@H](C)O)[C@@H](C)O)nn2)c1 [Peptide C16Im-KTTKS] (X1-KTTKS-NH2) | 32 to 64 µg/mL | 16 to 32 | 16 to 32 | 36.6 ± 1.09 | 9.5 μM and 9.3 μg/mL | 18.5 µg/mL | 14.3 μM and 14.0 μg/mL | 28.7 μM and 28.0 μg/mL | 14.3 μM and 14.0 μg/mL | 28.7 μM and 28.0 μg/mL | 27.4 μM and 26.8 μg/mL | 18.5 µg/mL | produce more collagen | 22.5 ± 1.08 | 37.9 μM and 37.0 μg/mL | MIC relative to that of ciprofloxacin [4]: ~10 fold; MIC [5]: 4.7 μM and 4.6 μg/mL; MIC [6]: 2.4 μM and 2.3 μg/mL; MIC [7]: 4.7 μM and 4.6 μg/mL
CCCCCCCCCCCCCCCCn1cc[n+](Cc2cn(CCCC[C@H](NC(=O)[C@@H](NC(=O)[C@@H](NC(=O)[C@@H](N)CCCCN)[C@@H](C)O)[C@@H](C)O)C(=O)N[C@@H](CO)C(N)=O)nn2)c1 [KTTK(C16Im)S] | 32 [64 to 128] μg/mL | 32 | 64 to 128 | 23.1 ± 1.1 | 5.4 μM and 5.0 μg/mL | 21.7 μM and 20.0 μg/mL | 7.0 μM and 6.45 μg/mL | 32.5 μM and 29.9 μg/mL | 14.0 μM and 12.9 μg/mL | 32.5 μM and 29.9 μg/mL | 53.8 μM and 49.5 μg/mL | 21.7 μM and 20.0 μg/mL | produce more collagen | 12.7 ± 1.06 | 21.7 μM and 20.0 μg/mL | MIC ([5]; listed as KTTK(C16m)S): 5.4 μM and 5.0 μg/mL; MIC ([6]; listed as KTTK(C16m)S): 2.7 μM and 2.5 μg/mL; MIC ([7]; listed as KTTK(C16m)S): 5.4 μM and 5.0 μg/mL
